Data from patent US20200361895A1, “NOVEL SULFONAMIDE CARBOXAMIDE COMPOUNDS” (Inflazome Limited, priority 2017, published 2020).
pIC50: −log10 of the molar value. Counter-ions that a name gives are not always drawn. Values belong to the compound of their own block, whether it stands above or below them.

Assays:
NLRP3 [1] = target: T1, NLRP3 (Homo sapiens, UniProt Q96P20); experiment: THP-1 cells pyroptosis assay (LPS + nigericin, resazurin readout; THP IC50); type: cell-based; parameters: Seed THP-1 cells (25,000 cells/well) containing 1.0 μg/ml LPS in 40 μl of RPMI medium; host or cells: THP-1 cells
Method in brief: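 IC50 from 4-parameter fit of resazurin fluorescence (100 μM, 1-2 hrs), reflecting surviving cells after pyroptosis. LPS-primed (1 μg/ml) THP-1 cells in FBS-free RPMI got compound for 3 hrs at 37° C (top 10 μM, half-log, 8 points), then nigericin 5 μM for 1 hr.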

NLRP3 [2] = target: T1, NLRP3; experiment: Human whole blood IL1β release assay (LPS + nigericin, AlphaLisa IL-1β; HWB IC50); type: cell-based; parameters: Human whole blood in Li-heparin tubes was obtained from healthy donors from a volunteer donor panel; from tissue; host or cells: human whole blood from healthy donors; settings: IL-1β release
Method in brief: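 IL-1β in plasma supernatant quantified by AlphaLisa after nigericin (10 μM final, 1 h, 37 °C) triggering of human whole blood that had been preincubated 3 h with LPS (1 μg/ml) plus compound (half-log, 8 points, from 10 μM). IC50 by variable-slope four-parameter regression.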

T1 sequence (Q96P20 whole entry): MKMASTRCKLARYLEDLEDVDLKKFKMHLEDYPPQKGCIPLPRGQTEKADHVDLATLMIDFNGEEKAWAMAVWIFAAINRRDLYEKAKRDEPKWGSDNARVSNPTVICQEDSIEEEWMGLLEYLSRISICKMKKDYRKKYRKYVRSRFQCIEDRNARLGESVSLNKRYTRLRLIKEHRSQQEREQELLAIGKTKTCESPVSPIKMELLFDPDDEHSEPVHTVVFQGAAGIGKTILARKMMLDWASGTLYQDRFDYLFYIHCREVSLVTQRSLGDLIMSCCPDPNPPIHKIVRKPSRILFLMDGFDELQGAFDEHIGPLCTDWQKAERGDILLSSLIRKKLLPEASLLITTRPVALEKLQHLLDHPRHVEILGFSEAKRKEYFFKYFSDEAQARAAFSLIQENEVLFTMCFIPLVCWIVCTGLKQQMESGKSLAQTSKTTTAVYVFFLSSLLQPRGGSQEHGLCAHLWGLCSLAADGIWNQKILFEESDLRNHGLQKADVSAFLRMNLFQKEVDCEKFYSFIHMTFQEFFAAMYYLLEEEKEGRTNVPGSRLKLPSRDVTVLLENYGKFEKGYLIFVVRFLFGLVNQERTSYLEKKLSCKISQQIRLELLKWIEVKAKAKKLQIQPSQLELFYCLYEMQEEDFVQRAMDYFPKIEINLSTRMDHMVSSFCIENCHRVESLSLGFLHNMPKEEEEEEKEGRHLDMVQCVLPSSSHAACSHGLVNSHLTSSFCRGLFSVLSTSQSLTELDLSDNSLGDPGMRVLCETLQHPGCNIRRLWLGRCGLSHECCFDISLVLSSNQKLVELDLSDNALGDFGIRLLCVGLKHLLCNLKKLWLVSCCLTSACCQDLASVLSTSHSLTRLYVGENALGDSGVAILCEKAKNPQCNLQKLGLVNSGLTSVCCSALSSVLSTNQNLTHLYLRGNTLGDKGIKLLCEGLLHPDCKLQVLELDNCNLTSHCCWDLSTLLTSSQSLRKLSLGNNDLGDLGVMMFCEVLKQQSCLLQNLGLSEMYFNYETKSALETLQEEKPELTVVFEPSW

- pIC50 (NLRP3 [1]): ≥ 6.30
- pIC50 (NLRP3 [2]): ≥ 6.30
Compound: COc1cc(-c2ccc3c(c2NC(=O)NS(=O)(=O)c2cc(C(=O)N(C)C)n(C)n2)CCC3)ccn1 [Example 169, 3-(N-((5-(2-Methoxypyridin-4-yl)-2,3-dihydro-1H-inden-4-yl)carbamoyl)sulfamoyl)-N,N,1-trimethyl-1H-pyrazole-5-carboxamide, sodium salt]

- pIC50 (NLRP3 [1]): ≥ 6.30
- pIC50 (NLRP3 [2]): ≥ 6.00
Compound: COc1cc(-c2cc(F)c3c(c2NC(=O)NS(=O)(=O)c2ccn(C4CC4)n2)CCC3)ccn1 [Example 170, 1-Cyclopropyl-N-((7-fluoro-5-(2-methoxypyridin-4-yl)-2,3-dihydro-1H-inden-4-yl)carbamoyl)-1H-pyrazole-3-sulfonamide, sodium salt]

- pIC50 (NLRP3 [1]): ≥ 6.30
- pIC50 (NLRP3 [2]): ≥ 5.30
Compound: COc1cc(-c2cc(C3CC3)c3c(c2NC(=O)NS(=O)(=O)c2ccn(C4CC4)n2)CCC3)ccn1 [Example 171, 1-Cyclopropyl-N-((7-cyclopropyl-5-(2-methoxypyridin-4-yl)-2,3-dihydro-1H-inden-4-yl)carbamoyl)-1H-pyrazole-3-sulfonamide, sodium salt]

- pIC50 (NLRP3 [1]): ≥ 6.30
- pIC50 (NLRP3 [2]): ≥ 6.00
Compound: COc1cc(-c2cc(F)c3c(c2NC(=O)NS(=O)(=O)c2ccn(C4CCC4)n2)CCC3)ccn1 [Example 172, 1-Cyclobutyl-N-((7-fluoro-5-(2-methoxypyridin-4-yl)-2,3-dihydro-1H-inden-4-yl)carbamoyl)-1H-pyrazole-3-sulfonamide, sodium salt]

- pIC50 (NLRP3 [1]): ≥ 6.30
- pIC50 (NLRP3 [2]): ≥ 6.30
Compound: COc1cc(-c2cc(F)c3c(c2NC(=O)NS(=O)(=O)c2ccn(C(C)(C)CN4CCC4)n2)CCC3)ccn1 [Example 173, 1-(1-(Azetidin-1-yl)-2-methylpropan-2-yl)-N-((7-fluoro-5-(2-methoxypyridin-4-yl)-2,3-dihydro-1H-inden-4-yl)carbamoyl)-1H-pyrazole-3-sulfonamide, sodium salt]

- pIC50 (NLRP3 [1]): ≥ 6.30
- pIC50 (NLRP3 [2]): ≥ 6.30
Compound: N#Cc1cc(-c2ccc3c(c2NC(=O)NS(=O)(=O)c2ccn(C4CCOC4)n2)CCC3)ccn1 (stereo not drawn) [Example 181, N-((5-(2-Cyanopyridin-4-yl)-2,3-dihydro-1H-inden-4-yl)carbamoyl)-1-(tetrahydrofuran-3-yl)-1H-pyrazole-3-sulfonamide, sodium salt]

- pIC50 (NLRP3 [1]): ≥ 6.30
- pIC50 (NLRP3 [2]): ≥ 6.30
Compound: COc1cc(-c2ccc3c(c2NC(=O)NS(=O)(=O)c2ccn(C[C@@H](C)O)n2)CCC3)ccn1 [Example 184, (R)-1-(2-Hydroxypropyl)-N-((5-(2-methoxypyridin-4-yl)-2,3-dihydro-1H-inden-4-yl)carbamoyl)-1H-pyrazole-3-sulfonamide]

- pIC50 (NLRP3 [1]): ≥ 6.30
- pIC50 (NLRP3 [2]): ≥ 6.30
Compound: COc1cc(-c2ccc3c(c2NC(=O)NS(=O)(=O)c2ccn(CC(C)(C)O)n2)CCC3)ccn1 [Example 186, 1-(2-Hydroxy-2-methylpropyl)-N-((5-(2-methoxypyridin-4-yl)-2,3-dihydro-1H-inden-4-yl)carbamoyl)-1H-pyrazole-3-sulfonamide]

- pIC50 (NLRP3 [1]): ≥ 6.30
- pIC50 (NLRP3 [2]): ≥ 6.30
Compound: COc1cc(-c2ccc3c(c2NC(=O)NS(=O)(=O)c2ccn(C4CCOC4)n2)CCC3)ccn1 (stereo not drawn) [Example 187, N-((5-(2-Methoxypyridin-4-yl)-2,3-dihydro-1H-inden-4-yl)carbamoyl)-1-(tetrahydrofuran-3-yl)-1H-pyrazole-3-sulfonamide]

Further lines, the compound ahead of its results:

Compound: COc1cc(-c2ccc3c(c2NC(=O)NS(=O)(=O)CCOC(C)C)CCC3)ccn1 [Example 174, 2-Isopropoxy-N-((5-(2-methoxypyridin-4-yl)-2,3-dihydro-1H-inden-4-yl)carbamoyl)ethanesulfonamide, sodium salt]
- pIC50 (NLRP3 [1]): ≥ 6.30
- pIC50 (NLRP3 [2]): ≥ 6.00

Compound: COc1cc(-c2ccc3c(c2NC(=O)NS(=O)(=O)CCOC(C)C)CCO3)ccn1 [Example 175, 2-Isopropoxy-N-((5-(2-methoxypyridin-4-yl)-2,3-dihydrobenzofuran-4-yl)carbamoyl)ethanesulfonamide, sodium salt]
- pIC50 (NLRP3 [1]): ≥ 6.30
- pIC50 (NLRP3 [2]): ≥ 6.30

Compound: COc1cc(-c2ccc3c(c2NC(=O)NS(=O)(=O)c2ccc(CN(C)C)nc2)CCC3)ccn1 [Example 176, 6-((Dimethylamino)methyl)-N-((5-(2-methoxypyridin-4-yl)-2,3-dihydro-1H-inden-4-yl)carbamoyl)pyridine-3-sulfonamide]
- pIC50 (NLRP3 [1]): ≥ 6.30
- pIC50 (NLRP3 [2]): ≥ 6.30

Compound: COc1cc(-c2ccc3c(c2NC(=O)NS(=O)(=O)c2ccnc(CN(C)C)c2)CCC3)ccn1 [Example 177, 2-((Dimethylamino)methyl)-N-((5-(2-methoxypyridin-4-yl)-2,3-dihydro-1H-inden-4-yl)carbamoyl)pyridine-4-sulfonamide, sodium salt]
- pIC50 (NLRP3 [1]): ≥ 6.30
- pIC50 (NLRP3 [2]): ≥ 6.00

Compound: COc1cc(-c2ccc3c(c2NC(=O)NS(=O)(=O)c2ccnc(C(C)C)c2)CCC3)ccn1 [Example 178, 2-Isopropyl-N-((5-(2-methoxypyridin-4-yl)-2,3-dihydro-1H-inden-4-yl)carbamoyl)pyridine-4-sulfonamide, sodium salt]
- pIC50 (NLRP3 [1]): ≥ 6.30
- pIC50 (NLRP3 [2]): ≥ 5.30

Compound: CC(C)n1ccc(S(=O)(=O)NC(=O)Nc2c(-c3cccnc3)ccc3c2CCCC3)n1 [Example 179, 1-Isopropyl-N-((2-(pyridin-3-yl)-5,6,7,8-tetrahydronaphthalen-1-yl)carbamoyl)-1H-pyrazole-3-sulfonamide]
- pIC50 (NLRP3 [1]): ≥ 5.30
- pIC50 (NLRP3 [2]): ≥ 5.30

Compound: COc1cc(-c2ccc3c(c2NC(=O)NS(=O)(=O)c2ccn(C(C)(C)CN4CC(OC)C4)n2)CCC3)ccn1 [Example 180, 1-(1-(3-Methoxyazetidin-1-yl)-2-methylpropan-2-yl)-N-((5-(2-methoxypyridin-4-yl)-2,3-dihydro-1H-inden-4-yl)carbamoyl)-1H-pyrazole-3-sulfonamide]
- pIC50 (NLRP3 [1]): ≥ 6.30
- pIC50 (NLRP3 [2]): ≥ 6.30

Compound: C[C@@H](O)Cn1ccc(S(=O)(=O)NC(=O)Nc2c(-c3ccnc(C#N)c3)ccc3c2CCC3)n1 [Example 182, (R)-N-((5-(2-Cyanopyridin-4-yl)-2,3-dihydro-1H-inden-4-yl)carbamoyl)-1-(2-hydroxypropyl)-1H-pyrazole-3-sulfonamide, sodium salt]
- pIC50 (NLRP3 [1]): ≥ 6.30
- pIC50 (NLRP3 [2]): ≥ 6.30

Compound: CC(C)(O)Cn1ccc(S(=O)(=O)NC(=O)Nc2c(-c3ccnc(C#N)c3)ccc3c2CCC3)n1 [Example 183, N-((5-(2-Cyanopyridin-4-yl)-2,3-dihydro-1H-inden-4-yl)carbamoyl)-1-(2-hydroxy-2-methylpropyl)-1H-pyrazole-3-sulfonamide, sodium salt]
- pIC50 (NLRP3 [1]): ≥ 6.30
- pIC50 (NLRP3 [2]): ≥ 6.30

Compound: COc1cc(-c2ccc3c(c2NC(=O)NS(=O)(=O)c2ccn(CC(C)(C)OC)n2)CCC3)ccn1 [Example 185, 1-(2-Methoxy-2-methylpropyl)-N-((5-(2-methoxypyridin-4-yl)-2,3-dihydro-1H-inden-4-yl)carbamoyl)-1H-pyrazole-3-sulfonamide]
- pIC50 (NLRP3 [1]): ≥ 6.30
- pIC50 (NLRP3 [2]): ≥ 6.30

Compound: COc1cc(-c2ccc3c(c2NC(=O)NS(=O)(=O)c2cc(C4(OC)COC4)n(C)n2)CCC3)ccn1 [Example 188, 5-(3-Methoxyoxetan-3-yl)-N-((5-(2-methoxypyridin-4-yl)-2,3-dihydro-1H-inden-4-yl)carbamoyl)-1-methyl-1H-pyrazole-3-sulfonamide]
- pIC50 (NLRP3 [1]): ≥ 6.30
- pIC50 (NLRP3 [2]): ≥ 6.30

Compound: COc1cc(-c2ccc3c(c2NC(=O)NS(=O)(=O)c2ccn(C(C)(C)C(=O)N(C)C)n2)CCC3)ccn1 [Example 189, 2-(3-(N-((5-(2-Methoxypyridin-4-yl)-2,3-dihydro-1H-inden-4-yl)carbamoyl)sulfamoyl)-1H-pyrazol-1-yl)-N,N,2-trimethylpropanamide]
- pIC50 (NLRP3 [1]): ≥ 6.30
- pIC50 (NLRP3 [2]): ≥ 6.30
